These are literature values, as cited in patent publication US20060104997A1, “Monoterpene compositions and uses thereof” (priority 2001, published 2006).

The subject of the data set is advanced N-methyl-N-nitrosourea-induced rat mammary carcinoma.

Take `C=C(C)C1CC=C(CO)CC1` (stereo not shown) [perillyl alcohol, 1-hydroxymethyl-4-isopropenyl-1-cyclohexene]: the “activity relative to limonene” value is listed as “approximately 5 fold”.
